This note sets out measurements from patent publication US20240239863A1, “GIP RECEPTOR AGONIST AND USE THEREOF” (HANGZHOU ZHONGMEIHUADONG PHARMACEUTICAL CO., LTD., priority 2022, published 2024).

For data set [1], the target named is human GIP receptor (glucose-dependent insulinotropic peptide receptor, GIPR) (human) (UniProt P48546). Briefly: cell-based or functional assay.
The target in another data set is human GLP-1 receptor (human, UniProt P43220 24-463). Briefly: cell-based or functional assay.
The target in another data set is hGLP-1R (Homo sapiens, UniProt P43220). Briefly: Cell agonistic activity at GLP-1 receptor (Example 7). The class given is cell-based. As to conditions: read-out: hGLP-1R EC50.
For the next data set, the target named is T1, hGIPR (Homo sapiens, UniProt P48546).
T1 construct: expressed in transfected cells; host or cells: HEK293, stably transduced
T1 sequence (P48546 22-466): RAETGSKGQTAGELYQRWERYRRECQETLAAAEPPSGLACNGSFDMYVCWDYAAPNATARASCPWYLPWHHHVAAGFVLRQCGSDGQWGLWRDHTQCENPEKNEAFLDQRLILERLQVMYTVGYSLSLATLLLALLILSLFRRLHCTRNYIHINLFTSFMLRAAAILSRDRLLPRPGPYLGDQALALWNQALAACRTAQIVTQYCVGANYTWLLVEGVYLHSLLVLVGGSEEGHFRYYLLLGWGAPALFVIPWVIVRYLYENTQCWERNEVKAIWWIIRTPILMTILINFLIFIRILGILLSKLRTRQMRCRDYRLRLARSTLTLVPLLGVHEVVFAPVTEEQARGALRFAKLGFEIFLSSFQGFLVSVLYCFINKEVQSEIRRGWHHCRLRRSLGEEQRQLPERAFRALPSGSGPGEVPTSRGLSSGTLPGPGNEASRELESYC
Briefly: HTRF cAMP cell agonistic activity assay, HEK293 stably expressing GIPR (Example 7). It counts as cell-based. As to the method: The agonistic activity of the compounds on the receptor was determined using the HTRF kit (purchased from Perkin Elmer). All reagents in the kit were allowed to equilibrate to room temperature before use. A 1× Stimulation Buffer was formulated according to the instruction in the kit for use. […] GIPR cells were digested with trypsin, centrifuged to remove the culture medium. The cells were resuspended in the 1× Stimulation Buffer. After being counted, 9 μL cell dilutions were inoculated into a 384-well plate at 1000 cells/well. 1 μL the 10× compound diluted in step 2 was taken and added to the corresponding test well, wherein 1 μL the 10× initial concentration positive compound was added to the PC hole (Min value), and 1 μL the 10×DMSO buffer (1%) was added to the VC hole (Max value). The plate was centrifuged and incubated at 37 °C for 30 minutes. Eu-cAMP was diluted with Detection buffer to a working concentration, and the diluent was added into the corresponding test well at 5 μL/well. ULight-anti-Camp was diluted with Detection buffer to a working concentration, and the diluent was added into the corresponding test well at 5 μL/well. After being centrifuged, the plate was incubated at room temperature for 1 hour. […] The nonlinear regression method of GraphPad Prism software was used for curve fitting and EC50 calculation.
(TR-FRET usually uses a lanthanide donor and a delayed reading to cut background.)

Details of data set [2]: species or system DIO mice. The following applies: mouse, in vivo. An excerpt: (§1) […] high-fat diet-induced obese (DIO) mice were weighed. When the average weight of the mice is about 40-45 g, they are randomly assigned to Groups G2-G11 based on the body weight of the mice, with 8 mice in each group. Eight C57BL/6 mice fed with normal diet were assigned to Group G1. Each mouse in all groups was housed in a separate cage for 2-3 days to adapt to environment before grouping. During this period, the mice were adaptively caught and administrated with blank solvent daily. The day of grouping was Day 0. The Vehicle group was administrated with blank solvent (propylene glycol: 14.0 mg/mL and disodium hydrogen phosphate: 1.132 mg/mL) at pH 7.4; s.c. means subcutaneous injection; the frequency of administration QD means once a day. Such expressions may be applied to the following Examples.
Based on the assay in Example 11, the cumulative water intake of the mice was also statistically calculated and compared with the water intake of the mice in the Tirzepatide treatment group.

Data set [3] is described as follows: Liver total cholesterol (TC) and triglyceride (TG) in DIO mice (Example 11). The class given is in vivo. The following applies: 30 nmol/kg s.c. QD, Day 25, fasted 4 hours.
From the text: as §1
(§2) The animals were weighed before grouping (i.e. before the first administration) and every 3 days after grouping. At the end of the experiment (Day 25), the mice were fasted for 4 hours. The livers of all mice in Groups G1-G8 were collected and weighed. About 20 mg of the livers were homogenized. The homogenate was taken to measure total cholesterol (TC) and […] (TG).

Data set [4] can be described thus: Body weight of DIO mice, 25 days, different administration ratios (Example 11). It counts as in vivo. The following applies: 30 nmol/kg s.c. QD, Day 25.
From the text: as §1, §2

Data set [5] is described as follows: Fasting blood glucose in STZ type 2 diabetic mice after 7 days (Example 9). The class given is in vivo. As to conditions: for Fasting Blood Glucose Value, 0 day: 0 day (baseline). An excerpt:
Male mice were allowed to adapt to new environment for 1 week before treatment. The mice were divided into several groups (n=6-8/group). The individual was screened and divided into groups based on body weight and fasting blood glucose. Grouping was done by screening in a balanced manner, so as to exclude individuals that were too large or too small. A blank buffer or a test compound was subcutaneously administrated to the animals once a day. The individuals in the body weight group were weighted daily before administration, while the individuals in the fasting blood glucose group (fasting for 4 hours) were measured for their blood glucose 7 days after administration.

A short description of data set [6]: Body weight of DIO mice after 28 days of administration (Example 10). The class given is in vivo, DIO male mice. As to conditions: 2 nmol/kg s.c. QD. The protocol: Eight or more C57BL/6J male mice at an age of 16 to 18 weeks and fifty-six or more DIO male mice with obesity induced by high-fat feed at an age of 16 to 18 weeks were selected. After entering the animal facility, all mice were adaptively fed for 3 days or more. They were required to adapt for 3 days before grouping. All mice were measured for body weight, body fat ratio and fasting blood glucose. Fifty-six DIO mice were randomly grouped primarily based on body weight and fasting blood glucose and secondarily based on body fat ratio. 8 C57BL/6J mice of close weekly age were assigned into the healthy control group. Each mouse in all groups was housed in a separate cage for 2-3 days to adapt to environment before grouping. During the period, the mice were adaptively caught and administrated with blank solvent daily. The day of grouping was Day 0, and the administration was continued for 28 days. […]
The body weight of each mouse was recorded every day according to the frequency of administration. Postprandial blood glucose was measured every 3 days, fasting blood glucose was measured every 7 days, and IPGTT (Intraperitoneal Glucose Tolerance Tests) was conducted once before the end point. […]

A short description of data set [7]: Body weight of DIO mice, high dosage, 21 days (Example 12). The class given is in vivo. As to conditions: 30 nmol/kg s.c. QD. An excerpt:
72 diet-induced obese (DIO) mice were weighed. (Screening and Grouping) When the average weight of the mice is about 40-45 g, they are randomly assigned to Groups G2-G11 based on the body weights of the mice, with 8 mice in each group. Eight C57BL/6 mice fed with normal diet were assigned to Group G1. Each mouse in all groups was housed in a separate cage for 2-3 days to adapt to environment before grouping. During this period, the mice were adaptively caught and administrated with blank solvent (propylene glycol: 14.0 mg/mL and disodium hydrogen phosphate: 1.132 mg/mL, pH 7.4) daily. The day of grouping was Day 0.

[8] abbreviates: 2.4 nmol/kg s.c. once a day, 7 days.
Setting [9] is: 14.4 nmol/kg s.c. once a day, 7 days.

By EC50 is commonly meant the concentration needed to bring the measured effect to its halfway point.

Starred links: 1 amine or outer side, 2 acyl side, 3 side chain; linkers in the order of their positions; H or OH if unused. Non-standard residues stand in square brackets, D forms with d. Residues, ends and D or L forms follow the SMILES beside them. Groups on a side chain read outwards from the residue. *: point of attachment. d(γGlu) = O=C(O)[C@@H](CCC(=O)[*:2])N[*:1]; C18 diacid = O=C(O)CCCCCCCCCCCCCCCCC(=O)*; AEEA = NCCOCCOCC(=O)O; Aib = CC(C)(N)C(=O)O

Chain of hGLP-1R (P43220 24-463): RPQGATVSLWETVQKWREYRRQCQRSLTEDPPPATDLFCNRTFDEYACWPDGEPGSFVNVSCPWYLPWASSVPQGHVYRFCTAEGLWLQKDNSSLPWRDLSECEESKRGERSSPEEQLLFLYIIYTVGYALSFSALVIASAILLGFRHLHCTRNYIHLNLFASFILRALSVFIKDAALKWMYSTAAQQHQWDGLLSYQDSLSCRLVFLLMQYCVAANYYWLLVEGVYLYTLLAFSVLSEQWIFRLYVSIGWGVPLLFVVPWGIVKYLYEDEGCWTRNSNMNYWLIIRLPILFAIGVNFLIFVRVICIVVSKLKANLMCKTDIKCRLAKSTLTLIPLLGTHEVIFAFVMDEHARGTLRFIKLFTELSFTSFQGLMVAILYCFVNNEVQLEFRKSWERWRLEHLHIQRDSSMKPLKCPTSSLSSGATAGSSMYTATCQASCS
Chain of human GLP-1 receptor (P43220 24-463): as above

Take “hGLP-1 (7-37) (from UniProt P01275 21-180) (ligand)”: the EC50(pM), cell agonistic activity (cAMP, HTRF) in data set [1] is over 100 pM. Also, in the data set with human GLP-1 receptor, the EC50(pM), cell agonistic activity came to 7.01 pM.

As to `CC[C@H](C)[C@H](NC(=O)[C@H](CO)NC(=O)[C@H](Cc1ccc(O)cc1)NC(=O)[C@H](CC(=O)O)NC(=O)[C@H](CO)NC(=O)[C@@H](NC(=O)[C@H](Cc1ccccc1)NC(=O)[C@@H](NC(=O)CNC(=O)[C@H](CCC(=O)O)NC(=O)C(C)(C)NC(=O)[C@@H](N)Cc1ccc(O)cc1)[C@@H](C)O)[C@@H](C)CC)C(=O)N[C@@H](C)C(=O)N[C@@H](CC(C)C)C(=O)N[C@@H](CC(=O)O)C(=O)N[C@@H](CCCNC(=N)N)C(=O)N[C@H](C(=O)N[C@@H](Cc1c[nH]cn1)C(=O)N[C@@H](CCC(N)=O)C(=O)N[C@@H](CCC(N)=O)C(=O)N[C@@H](CC(=O)O)C(=O)N[C@@H](Cc1ccccc1)C(=O)N[C@H](C(=O)N[C@@H](CC(N)=O)C(=O)N[C@@H](Cc1c[nH]c2ccccc12)C(=O)N[C@@H](CC(C)C)C(=O)N[C@@H](CC(C)C)C(=O)N[C@@H](C)C(=O)N[C@@H](CCC(N)=O)C(=O)N[C@@H](CCCCNC(=O)COCCOCCNC(=O)COCCOCCNC(=O)CC[C@@H](NC(=O)CCCCCCCCCCCCCCCCC(=O)O)C(=O)O)C(=O)NCC(=O)O)C(C)C)[C@@H](C)CC` [Peptide 14, N-{ε-30}-18-{[(23R)-23-carboxyl-2,11,20-trioxo-10,19-diaza-4,7,13,16-tetraoxatricosyl-23-yl]amino}-18-oxooctadecanoic acid acetyl-[Aib2, L14, R16]-hGIP(1-31)] (H-Y[Aib]EGTFISDYSIALDRIHQQDFVNWLLAQK([AEEA-AEEA-d(γGlu)-C18 diacid])G-OH), the EC50 on hGLP-1R was over 100 pM; on hGIPR, 3.5 pM.

On to `CC[C@H](C)[C@H](NC(=O)[C@H](CC(C)C)NC(=O)[C@H](Cc1c[nH]c2ccccc12)NC(=O)[C@H](CCC(N)=O)NC(=O)[C@@H](NC(=O)[C@H](Cc1ccccc1)NC(=O)[C@H](C)NC(=O)[C@H](CCCCNC(=O)COCCOCCNC(=O)COCCOCCNC(=O)CC[C@H](NC(=O)CCCCCCCCCCCCCCCCCCC(=O)O)C(=O)O)NC(=O)[C@H](CCC(N)=O)NC(=O)[C@H](C)NC(=O)[C@@H](NC(=O)[C@H](CCCCN)NC(=O)[C@H](CC(=O)O)NC(=O)[C@H](CC(C)C)NC(=O)C(C)(C)NC(=O)[C@@H](NC(=O)[C@H](CO)NC(=O)[C@H](Cc1ccc(O)cc1)NC(=O)[C@H](CC(=O)O)NC(=O)[C@H](CO)NC(=O)[C@@H](NC(=O)[C@H](Cc1ccccc1)NC(=O)[C@@H](NC(=O)CNC(=O)[C@H](CCC(=O)O)NC(=O)C(C)(C)NC(=O)[C@@H](N)Cc1ccc(O)cc1)[C@@H](C)O)[C@@H](C)O)[C@@H](C)CC)[C@@H](C)CC)C(C)C)C(=O)N[C@@H](C)C(=O)NCC(=O)NCC(=O)N1CCC[C@H]1C(=O)N[C@@H](CO)C(=O)N[C@@H](CO)C(=O)NCC(=O)N[C@@H](C)C(=O)N1CCC[C@H]1C(=O)N1CCC[C@H]1C(=O)N1CCC[C@H]1C(=O)N[C@@H](CO)C(N)=O` [Tirzepatide], for which the “water intake / adverse responses” value in data set [2] is listed as “significantly inhibited”.

In turn, “N^6,26-{18-[N-(17-carboxylheptadecanoyl)-L-γ-glutamyl]-10-oxo-3,6,12,15-tetraoxa-9,18-diazaoctadecanoyl}-[8-(2-amino-2-propionic acid), 34-L-arginine] human glucagon-like peptide 1 (7-37) [GLP-1 Analog]” registered a TC in data set [3] of 4.89 ± 0.12 mM. In [3], this compound gave a TG of 0.91 ± 0.03 mM. Moreover, the “Body Weight” value in [4] is 31.1 ± 0.7 g; in [4] (listed as GLP-1 Analogs), 31.1 ± 0.7 g; in data set [7] (Day 21) it was 33.1 ± 0.7 g. For the same compound, the “Fasting Blood Glucose Value, 0 day” value in [5] (2.4 nmol/kg s.c. once a day) worked out at 27.17 ± 2.01 mmol/L; in data set [5] (14.4 nmol/kg s.c. once a day), 26.96 ± 1.60 mmol/L. Also, the figures for the “Decrease of Blood Glucose, 7 days” value in [5] (setting [8]) and in data set [5] (setting [9]) were 27.10 ± 13.55% and 49.30 ± 17.03%, respectively. Moreover, the “Fasting Blood Glucose Value, 7 days” value in data set [5] (setting [8]) was 19.82 ± 3.79 mmol/L; in [5] (setting [9]), 13.66 ± 4.94 mmol/L. Besides, the “blood glucose values, single drug treatment” value in [5] (2.4 and 14.4 nmol/kg, 7 days) is “decrease in blood glucose values”. The Weight in data set [6] stood at 40.2 ± 1.5 g. For the same compound, in data set [6], the “Weight Change” value was −3.2%. In [7], the “Body Weight Reduction Percentage at Day 21” value was 24.7 ± 1.3 %.
